The source of these data is US10085449B2, “N-[1-((6-chloropyridin-3-yl)methyl)pyridin-2(1H)-ylidene]-2,2,2- trifluoroacetamide for control of agricultural/horticultural pests” (priority 2010, dated 2018).

In general, mortality refers to the percentage killed.

Type in all cases: in vivo
One data set deals with western flower thrips. The data set is described as follows: whole plant or invertebrate. Conditions: Frankliniella occidentalis, foliar. The protocol:
(§1) Leaf discs 2.8 cm in diameter were cut from bean plants grown in pots, and these were sprayed with solutions of the inventive compounds at a predetermined concentration prepared to 50% acetone/water (containing 0.05% Tween 20). The treated leaf discs were air dried, following which first-instar larvae were released onto the discs. The leaf discs and larvae were then held in an incubation chamber at 25° C. (16-hour period of light, 8-hour dark period). Three days after released, the numbers of live and dead insects were counted, and the mortality was calculated from the following formula. This was a two-replication test. Mortality (%)=[number of dead insects/(number of live insects+number of dead insects)]×100

A further data set has as its system diamondback moth. The experiment in a line: whole plant or invertebrate. Conditions: Plutella xylostella, foliar. How it is done:
as §1, with “5.0” for “2.8”, “cabbage” for “bean”, “second-instar” for “first-instar”

The test system of a further data set is rice leaf bug. The data set is described as follows: whole plant or invertebrate. To be noted: foliar, 72 h. The protocol:
The treated seedlings were air-dried, then each was placed in a glass cylinder and two second-instar rice leaf bug larvae were released within the same glass cylinder. Following release of the insects, the tube was capped and held in an incubation chamber at 25° C. (16-hour period of light, 8-hour dark period). […] Three days after released, the numbers of live and dead insects were counted, and the mortality was calculated from the following formula. Mortality (%)=[number of dead insects/(number of live insects+number of dead insects)]×100

The test system of another data set is cotton aphid. The experiment in a line: whole plant or invertebrate. To be noted: Aphis gossypii, foliar. The protocol:
as §1, with “2.0” for “2.8”, “cucumber” for “bean”

The subject of data set [1] is small brown planthopper. The experiment in a line: whole plant or invertebrate. To be noted: Laodelphax striatellus, in Triticum aestivum, 96 h. The protocol:
Wheat seedling roots 48 hours after sowing were treated with solutions of the inventive compounds at a predetermined concentration prepared to 10% acetone/water. After allowing the roots to absorb the chemical for 72 hours, ten second-instar small brown planthopper larvae were released onto each seedling. The treated seedlings and larvae were then held in an incubation chamber at 25° C. (16-hour period of light, 8-hour dark period). Four days after released, the numbers of live and dead insects were counted, and the mortality was calculated from the following formula. The test was carried out as two replications. Mortality (%)=[number of dead insects/(number of live insects+number of dead insects)]×100

Data set [2] relates to small brown planthopper. The experiment in a line: whole plant or invertebrate. To be noted: Laodelphax striatellus, 72 h; for pest or weed control at 0.01 mg/pot: 0.01 mg/pot (Table 13); for pest or weed control at 0.05 mg/pot: 0.05 mg/pot (Table 13). The protocol:
(§2) Rice seedlings grown in pots were subjected to soil drenching treatment with solutions of the inventive compounds at a predetermined concentration prepared to 10% acetone/water. Three days following treatment, ten second-instar small brown planthopper larvae were released onto each seedling. The treated seedlings and larvae were then held in an incubation chamber at 25° C. (16-hour period of light, 8-hour dark period). Three days after released, the numbers of live and dead insects were counted, and the mortality was calculated from the following formula. The test was carried out as two replications. Mortality (%)=[number of dead insects/(number of live insects+number of dead insects)]×100

The subject of another data set is common cutworm. The data set is described as follows: whole plant or invertebrate. Conditions: for Insecticidal effects (mortality), common cutworm third-instar larvae: foliar application, 500 ppm. How it is done: as §1, with “5.0” for “2.8”, “cabbage” for “bean”, “third-instar” for “first-instar”
For data set [3], the system named is brown rice planthopper having a low susceptibility to insecticides. Also on record: key to Brown rice planthopper, Kumamoto low susceptibility (rice soil drenching), effect: mortality %, dead/(live+dead) ×100. Conditions: rice soil drenching, 0.05 mg/pot. The protocol:
as §2, with “days after” for “days following”, “second-instar” for “second-instar small”, “brown rice” for “brown”, “larvae having a low susceptibility to insecticides” for “larvae”, “The” for “The treated”, “and insects” for “and larvae”
The pests used in this test were insects that had been raised indoors for successive generations over a long period of time (susceptible line), and insects that had been raised indoors for successive generations after being collected (I) in 2007 within Kumamoto Prefecture and (II) in 2005 within Fukuoka Prefecture (field-collected lines).

Setting [4] is: read-out: Insecticidal effects (mortality), western flower thrips first-instar larvae.
[5] abbreviates: read-out: Insecticidal effects (mortality), diamondback moth second-instar larvae.
Setting [6] is: read-out: Insecticidal effects (mortality), cotton aphid first-instar larvae.
[7] abbreviates: read-out: Insecticidal effects (mortality), small brown planthopper second-instar larvae.
Where [8] appears, read: rice soil drenching, read-out: Small brown planthopper (rice soil drenching), effect.
Setting [9] is: soil, read-out: Insecticidal effects (mortality), small brown planthopper second-instar larvae.

Like-named read-outs stand apart in the source and are kept apart here.

Consider `O=C(N=c1ccccn1Cc1ccc(Cl)nc1)C(F)(F)Cl` [Compound 239, 2-chloro-N-[1-((6-chloropyridin-3-yl)methyl)pyridin-2(1H)-ylidene]-2,2-difluoroacetamide], for which the mortality at 500 ppm with western flower thrips (setting [4]) came to 40%. In the data set with diamondback moth (setting [5]), the mortality at 20 ppm came out at 100%, the mortality at 100 ppm was 100% and the mortality at 500 ppm is 100%. Moreover, in the data set with diamondback moth (in Brassica oleracea, 72 h), the mortality at 100 ppm is at least 80% and the mortality at 500 ppm was at least 80%. Moreover, the mortality at 50 ppm in the data set on rice leaf bug is at least 80%. Also, in the data set on cotton aphid (setting [6]), the mortality at 20 ppm was determined as 100%, the mortality at 100 ppm stood at 100% and the mortality at 500 ppm is 100%. In the data set on cotton aphid (in Cucumis sativus, 72 h), this compound yielded a mortality at 20 ppm of at least 80%, a mortality at 100 ppm of at least 80% and a mortality at 500 ppm of at least 80%. This compound returned a mortality at 20 µg/seedling in the data set with small brown planthopper [1] of at least 80%. In addition, in the data set with small brown planthopper [1] (setting [7]), the mortality at 0.25 mg/seedling was 100%, the mortality at 0.5 mg/seedling came to 100%, the mortality at 2 mg/seedling came to 100% and the mortality at 20 mg/seedling was found to be 100%. Also, in the data set on small brown planthopper [2] (rice soil drenching, 0.005 mg/pot (Table 13), read-out: Small brown planthopper (rice soil drenching), effect), the pest or weed control at 0.005 mg/pot was found to be 30%. In addition, in the data set on small brown planthopper [2] (setting [8]), the pest or weed control at 0.01 mg/pot was determined as 80% and the pest or weed control at 0.05 mg/pot is 100%. The mortality at 0.05 mg/seedling in the data set on small brown planthopper [2] (soil) was at least 80%. In the data set with small brown planthopper [2] (setting [9]), the mortality at 0.005 mg/pot was 30%, the mortality at 0.01 mg/pot worked out at 80% and the mortality at 0.05 mg/pot was found to be 100%. In addition, the “Insecticidal effects (mortality), common cutworm third-instar larvae” value (from here on “Insecticidal effects (mortality)”) in the data set with common cutworm turned out to be 90. The compound also showed a mortality at 500 ppm in the data set with common cutworm (foliar, 72 h) of at least 80%.

Consider `O=C(/C=C1\NCCN1Cc1ccc(Cl)nc1)C(F)(F)F` [Comparative Example 4, 3-[1-((6-chloropyridin-3-yl)methyl)imidazolidin-2-ylidene]-1,1,1-trifluoropropan-2-one, reference compound], for which the “Brown rice planthopper, Kumamoto low susceptibility (rice soil drenching), effect” value in data set [3] is 45. In the data set on small brown planthopper [2] (setting [8]), the pest or weed control at 0.01 mg/pot was determined as 20% and the pest or weed control at 0.05 mg/pot was determined as 100%.

Regarding `O=C(N=c1ccccn1Cc1cnc(Cl)nc1)C(F)(F)F` [Compound 243, N-[1-((2-chloropyrimidin-5-yl)methyl)pyridin-2(1H)-ylidene]-2,2,2-trifluoroacetamide], the mortality at 500 ppm with western flower thrips (72 h) is at least 80%. Moreover, in the data set on western flower thrips (setting [4]), the mortality at 500 ppm stood at 100%. For the same compound, in the data set with diamondback moth (setting [5]), the mortality at 100 ppm was determined as 100% and the mortality at 500 ppm turned out to be 100%. Further, in the data set with diamondback moth (in Brassica oleracea, 72 h), the mortality at 100 ppm is at least 80% and the mortality at 500 ppm was at least 80%. Also, in the data set with rice leaf bug, the mortality at 50 ppm is at least 80%. Also, in the data set with cotton aphid (setting [6]), the mortality at 1.25 ppm was determined as 80%, the mortality at 5 ppm was 100%, the mortality at 100 ppm stood at 100% and the mortality at 500 ppm turned out to be 100%. In the data set on cotton aphid (in Cucumis sativus, 72 h), this compound showed a mortality at 20 ppm of at least 80%, a mortality at 100 ppm of at least 80% and a mortality at 500 ppm of at least 80%. Also, in the data set with small brown planthopper [1] (setting [7]), the mortality at 0.5 mg/seedling was 100%, the mortality at 2 mg/seedling is 100% and the mortality at 20 mg/seedling was determined as 100%. For the same compound, in the data set on small brown planthopper [2] (setting [8]), the pest or weed control at 0.05 mg/pot turned out to be 100%. Moreover, the mortality at 0.05 mg/seedling in the data set on small brown planthopper [2] (soil) was at least 80%. The mortality at 0.05 mg/pot in the data set with small brown planthopper [2] (setting [9]) came out at 100%. For the same compound, the “Insecticidal effects (mortality)” value in the data set on common cutworm is 10.

On to `O=C(CCl)N=c1ccccn1Cc1ccc(Cl)nc1` [Compound 236, 2-chloro-N-[1-((6-chloropyridin-3-yl)methyl)pyridin-2(1H)-ylidene]acetamide], for which the mortality at 50 ppm in the data set with rice leaf bug is at least 80%. In the data set with cotton aphid (in Cucumis sativus, 72 h), the mortality at 20 ppm is at least 80% and the mortality at 100 ppm is at least 80%.

In the data set with western flower thrips (72 h), `O=C(N=c1ccccn1Cc1ccc(Cl)nc1)C(F)(F)C(F)(F)F` [Compound 242, N-[1-((6-chloropyridin-3-yl)methyl)pyridin-2(1H)-ylidene]-2,2,3,3,3-pentafluoropropanamide] had a mortality at 500 ppm of at least 80%. Moreover, in the data set on western flower thrips (setting [4]), the mortality at 100 ppm stood at 76% and the mortality at 500 ppm came out at 100%. Also, in the data set on diamondback moth (setting [5]), the mortality at 100 ppm was 100% and the mortality at 500 ppm worked out at 100%. In the data set on diamondback moth (in Brassica oleracea, 72 h), this compound showed a mortality at 100 ppm of at least 80% and a mortality at 500 ppm of at least 80%. In addition, the mortality at 50 ppm in the data set on rice leaf bug was at least 80%. Further, in the data set with cotton aphid (setting [6]), the mortality at 1.25 ppm was 35%, the mortality at 5 ppm stood at 80%, the mortality at 20 ppm was determined as 100% and the mortality at 100 ppm came to 100%. In the data set with cotton aphid (in Cucumis sativus, 72 h), the mortality at 20 ppm was at least 80% and the mortality at 100 ppm is at least 80%. In the data set with small brown planthopper [1] (setting [7]), the mortality at 0.5 mg/seedling turned out to be 100%, the mortality at 2 mg/seedling was determined as 100% and the mortality at 20 mg/seedling turned out to be 100%. The pest or weed control at 0.05 mg/pot with small brown planthopper [2] (setting [8]) stood at 100%. Moreover, the mortality at 0.05 mg/seedling with small brown planthopper [2] (soil) is at least 80%. The mortality at 0.05 mg/pot in the data set on small brown planthopper [2] (setting [9]) amounted to 100%. Besides, the “Insecticidal effects (mortality)” value in the data set with common cutworm came out at 60.
